Results from patent publication US20060147992A1, “Method for detection of bioactive peptides” (priority 2002, published 2006).

Tested on: platelets
Experiment: luminometric determination of collagen-induced ATP release from platelets
Assay type: cell-based
Details: platelet rich plasma, 2 μg/ml collagen, RGDS 30 μM; p<0.002 versus collagen alone
Excerpt: Miniaturised (96 well format) high-throughput screening assays capable of assessing platelet activation that are suitable for screening potential anti-thrombotic agents have been developed. The primary assay is based on the phenomenon that platelet activation results in a substantial release of ATP from dense granules. Released ATP is then rapidly quantitated in a plate reader using bioluminescence and is proportional to the extent of platelet activation.
Platelet rich plasma was stimulated by automated injection of 2 μg/ml collagen in the presence or absence of commercially available RGDS (30 μM). Relative light output was then measured automatically in a BMG Fluostar plate reader.
Fibrinogen was digested with either Lys-C (A) or trypsin (B) prior to fractionation as described in FIGS. 2 and 3.

RGDS
inhibition of collagen-induced ATP release: 30%
